Test results as given in US20050075282A1, “Materials and methods for inhibiting the development of epilepsy” (priority 2003, published 2005).
“And” between values parts separate entries of the source, which are not always exact repeats. Equal entries are not always repeated.

Experiments:
HDAC (293T cells) = tested on: T1, HDAC (293T cells); details: 293T cells-HDAC assay; reference 6; cited from earlier work
T1 construct: IC50; other: 293T cells-HDAC assay

[1] = target: purified nuclear histone deacetylase; details: Calf thymus, reference 2; cited from earlier work
HDAC [2] = details: HDAC inhibitors in rats; cited from earlier work
HDAC [3] = details: cited from earlier work; for IC50: read-out: IC50 (HDAC inhibition)
GABAR = experiment: Whole cell voltage clamp of isolated dentate granule cells (DGCs), response to GABA, after in vivo HDAC inhibitor treatment; design: species or system rats
[4] = tested on: rats post pilocarpine-induced status epilepticus; experiment: Chronic epilepsy monitoring (video) after pilocarpine-induced SE; format: in vivo; details: TSA injected three times, 2 hr, 6 hr and 24 hr post SE; seven weeks monitoring; vs vehicle
Experimental: Trichostatin A (TSA) administration. TSA was administered in the lateral ventricle {−0.8 mm A-P; 1.5 LAT; 3.2 DOWN (Paxinos and Watson 1982)} one hour prior to pilocarpine injection to induce SE. The cannula guide had been previously implanted using stereotaxic surgery two weeks prior to experiment to allow animals properly recovery. TSA (5 μl) was delivered via tubing connected to a pump at a concentration of 5 μg/ml (vehicle, 0.9% saline) at a rate of 1 μl/min for 5 minutes through 29-gauge tubing attached to the cannula. Successful delivery of TSA was verified by histological examination of cannula position and a moving mark inside the tubing. In additional studies (FIGS. 5 and 6), TSA was administered I.P., 2, 6, and 24 hrs post SE.
Pilocarpine-induced status epilepticus. Rats were injected with (−) scopolamine methyl nitrate (1 mg/kg body weight, s.c.) 30 min prior to pilocarpine hydrochloride (405 mg/kg body weight, s.c.). Controls received a sub-convulsive dosage of pilocarpine (40 mg/kg, s.c.). After one hour of SE, diazepam was used to stop SE.
Chronic epilepsy monitoring in TSA treatment. […] This effect lasted for at least 5-7 days, during which time animals had no behavioral seizures (latent period). Animals sequentially developed spontaneous seizures (epilepsy). […] Animals were video monitored for 7 weeks post SE, and the frequency and severity of seizures was quantified.

NMDAR = experiment: Whole cell voltage clamp of isolated DGCs, response to NMDA, after in vivo HDAC inhibitor treatment; design: species or system rats; details: for increase of DGC NMDAR current densities in control rats: treated control vs control (VPA) or control+vehicle (TSA)
AMPAR = experiment: Whole cell voltage clamp of isolated DGCs, response to kainate + cyclothiazide, after in vivo HDAC inhibitor treatment; design: species or system rats
[5] = tested on: HeLa cell nuclear extract HDACs; details: Enhances histone acetylation in HeLa cell nuclear extract; reference 4; cited from earlier work
[6] = DGCs 1 Wk post SE, TSA in the lateral ventricle
[7] = control rats, TSA in the lateral ventricle
[8] = DGCs 1 Wk post SE, VPA study (FIG. 2B)
[9] = control rats, VPA in drinking water

CCCC(=O)[O-].[Na+] [Sodium Butyrate, Sodium butyrate]
IC50 (HDAC (293T cells)): 300 to 400 µM | IC50 [1]: 250 µM | EC50 (HDAC [2]): 200 to 500 µM | IC50 (HDAC [3]): 1500 µM

CC(/C=C/C(=O)NO)=C\[C@@H](C)C(=O)c1ccc(N(C)C)cc1 [TSA, Trichostatin A]
GABAR Current density (GABAR; DGCs 1 Wk post SE, 1-hr post SE TSA i.p. injection (FIG. 6)): 235.1±62.3 pA/pF | GABAR Charge transfer density (GABAR; [6]): 185.9 ± 18.4 (n = 30) (msec) × (nA)/(pF) | GABAR Desensitization % (GABAR; [6]): 83.1 ± 2.0 (n = 30) % | GABAR Current density (GABAR; DGCs 1 Wk post SE, TSA in the lateral ventricle one hour prior to pilocarpine, GABA 1 mM): 225.6±17.3 pA/pF and 225.6 ± 17.3 (n = 32) pA/pF | GABAR Charge transfer density (GABAR; [7]): 169.7 ± 14.2 (n = 37) (msec) × (nA)/(pF) | GABAR Desensitization % (GABAR; [7]): 83.8 ± 1.5 (n = 36) % | GABAR Current density (GABAR; control rats, TSA in the lateral ventricle, GABA 1 mM): 217.9±12.8 pA/pF and 217.9 ± 12.8 (n = 36) pA/pF | EC50 (HDAC [2]): 0.05 to 0.5 µM | reduction of average spontaneous seizure frequency [4]: more than 70% | effect on NMDAR current density (NMDAR; DGCs 1 Wk post SE, TSA i.p. post SE (FIG. 6)): no significant effect | NMDAR Charge transfer density (NMDAR; [6]): 153.7 ± 16.6 (n = 31) (msec) × (nA)/(pF) | NMDAR Current density (NMDAR; [6]): 117.3±16.0 pA/pF and 117.3 ± 16.0 (n = 31) pA/pF | NMDAR Desensitization % (NMDAR; [6]): 38.5 ± 3.5 (n = 31) % | NMDAR Desensitization tau (NMDAR; [6]): 1222.1 ± 173.8 (n = 28) msec | NMDAR Charge transfer density (NMDAR; [7]): 196.2 ± 14.4 (n = 39) (msec) × (nA)/(pF) | NMDAR Desensitization % (NMDAR; [7]): 27.1 ± 2.2 (n = 39) % | NMDAR Desensitization tau (NMDAR; [7]): 1262.6 ± 197.5 (n = 37) msec | NMDAR Current density (NMDAR; control rats, TSA in the lateral ventricle, NMDA 100 μM, Mg-free): 121.0±9.0 pA/pF and 121.0 ± 9.0 (n = 39) pA/pF | increase of DGC NMDAR current densities in control rats (NMDAR): 83.1% | IC50 / working range (HDAC inhibition) (HDAC [3]; in vitro): nM affinity range | increase of AMPAR current densities in control rats (AMPAR; Control+TSA vs Control+vehicle): 43.8% | effect on reduced AMPAR function / current densities (AMPAR; DGCs 1 Wk post SE): totally prevented | AMPAR Charge transfer density (AMPAR; [6]): 703.3 ± 49.9 (n = 33) (msec) × (nA)/(pF) | AMPAR Charge transfer density (AMPAR; [7]): 907.6 ± 57.7 (n = 41) (msec) × (nA)/(pF)

CCCC(CCC)C(=O)[O-].[Na+] [VPA, 2-propyl-pentanoic acid-sodium salt]
IC50 (HDAC (293T cells)): 700 to 1000 µM | GABAR Charge transfer density (GABAR; DGCs 1 Wk post SE): 217.0 ± 16.4 (n = 73) (msec) × (nA)/(pF) | GABAR Desensitization % (GABAR; DGCs 1 Wk post SE): 76.5 ± 2.1 (n = 73) % | GABAR current densities (GABAR; [8]): 234.6±12.7 pA/pF | GABAR Current density (GABAR; DGCs 1 Wk post SE, GABA 1 mM): 234.6 ± 12.7 (n = 74) Pa/pF | GABAR current densities (GABAR; control rats + VPA (FIG. 2B)): 243.04±19.25 pA/pF | GABAR Charge transfer density (GABAR; [9]): 239.8 ± 27.8 (n = 22) (msec) × (nA)/(pF) | GABAR Current density (GABAR; control rats, VPA in drinking water 1.0 g/kg daily, GABA 1 mM): 243.0 ± 19.3 (n = 22) Pa/pF | GABAR Desensitization % (GABAR; control rats, VPA in drinking water, 2-second agonist application): 70.3 ± 4.2 (n = 22) % | Ki [5]: 510 µM | EC50 (HDAC [2]): 300 to 700 µM | NMDAR Desensitization % (NMDAR; DGCs 1 Wk post SE): 43.9 ± 2.7 (n = 61) % | NMDAR Desensitization tau (NMDAR; DGCs 1 Wk post SE): 768.6 ± 51.1 (n = 51) Msec | NMDAR Current density (NMDAR; DGCs 1 Wk post SE, NMDA 100 μM, Mg-free): 74.0 ± 9.5 (n = 62) Pa/pF | NMDAR current densities (NMDAR; control rats + VPA (FIG. 4)): 102.1±17.5 pA/pF | NMDAR Charge transfer density (NMDAR; [9]): 123.2 ± 18.0 (n = 25) (msec) × (nA)/(pF) | NMDAR Desensitization % (NMDAR; [9]): 35.6 ± 4.6 (n = 25) % | NMDAR Desensitization tau (NMDAR; [9]): 669.8 ± 77.3 (n = 21) Msec | increase of DGC NMDAR current densities in control rats (NMDAR): 49.9% | IC50 (HDAC [3]): 400 µM | AMPAR Charge transfer density (AMPAR; DGCs 1 Wk post SE): 459.8 ± 30.8 (n = 66) (msec) × (nA)/(pF) | effect on reduced AMPAR function / current densities (AMPAR; DGCs 1 Wk post SE): partially restore | AMPAR Charge transfer density (AMPAR; [9]): 780.4 ± 53.3 (n = 26) (msec) × (nA)/(pF)

CCCC(CCC)C(N)=O [VPM, valpromide]
GABAR Charge transfer density (GABAR; DGCs 1 Wk post SE): 249.5 ± 41.5 (n = 26) (msec) × (nA)/(pF) | GABAR Desensitization % (GABAR; DGCs 1 Wk post SE): 77.3 ± 2.7 (n = 27) % | GABAR current densities (GABAR; [8]): 218.63±33.2 pA/pF | GABAR Current density (GABAR; DGCs 1 Wk post SE, GABA 1 mM): 218.6 ± 33.2 (n = 30) Pa/pF | NMDAR Charge transfer density (NMDAR; DGCs 1 Wk post SE): 180.0 ± 22.4 (n = 26) (msec) × (nA)/(pF) | NMDAR Desensitization % (NMDAR; DGCs 1 Wk post SE): 46.7 ± 4.5 (n = 25) % | NMDAR Desensitization tau (NMDAR; DGCs 1 Wk post SE): 787.8 ± 131.5 (n = 23) Msec | NMDAR current densities (NMDAR; DGCs 1 Wk post SE, VPA study (FIG. 4)): 141.1±17.3 pA/pF | AMPAR Charge transfer density (AMPAR; DGCs 1 Wk post SE): 615.3 ± 42.3 (n = 27) (msec) × (nA)/(pF) | AMPAR current densities (AMPAR; DGCs 1 Wk post SE, VPA study (FIG. 3)): 302.5±20.2 pA/pF
